Experimental data: US7523563B2, “Process for preparing certain hydrohalide metal complex compounds having a specific coarse structure” (Verla-Pharm Arzneimittelfabrik Apotheker H.J.v. Ehrlich …, priority 2005, dated 2009)
Where “and” joins values, the source holds several entries; their conditions need not be identical. Equal values may be shown once.

What was measured:
[1] = Particle size distribution, comparative sieve analysis (Hosokawa Alpine air jet sieve); type: physicochemical
From the text: The particle size distribution of granular magnesium L-aspartate hydrochloride prepared by the process according to the invention was compared with a finely powdered magnesium L-aspartate hydrochloride prepared by a standard process (disclosed in DE 32 38 118 A1).

[2] = Flow time and flowability, conical flow funnel, 2.9.16 Method Ph. Eur.; type: physicochemical; details: 100 g, time for whole sample to flow out of the funnel, two samples each; hydrochloride
Description: The flowability of granular magnesium L-aspartate hydrochloride prepared by the process according to the invention was compared with a finely powdered magnesium L-aspartate hydrochloride prepared by a standard process (disclosed in DE 32 38 118 A1). The test arrangement consisted of a conical flow funnel with a height of 22.5 cm, an upper internal diameter of 7.3 cm and a lower internal diameter of 8.2 mm. The test was carried out by the 2.9.16 Method, Ph. Eur., 4th edition, main volume 2002, as follows. 100 g portions of material were put into the funnel. Opening of the funnel orifice was followed by assessment of the flowability, and the time for the whole sample to flow out of the funnel was determined. Two samples were measured in each case.

[3] = Dissolving properties, time until dissolution complete in water; type: physicochemical; details: 10 g in 250 ml of water, stirring 20 revolutions per min; hydrochloride
Description: The dissolving properties of granular magnesium L-aspartate hydrochloride prepared by the process according to the invention were compared with a finely powdered magnesium L-aspartate hydrochloride prepared by a standard process (disclosed in DE 32 38 118 A1). The test arrangement consisted of a glass beaker with stirring bar which was adjusted to 20 revolutions per min. 250 ml of water were introduced and then 10 g of test material were added with the stirrer motor running. The time until dissolution was complete was measured.

[4] = Water uptake capacity or hygroscopicity, desiccator at 75% relative humidity; type: physicochemical; details: for percentage increase in weight: hydrochloride
From the text: The hygroscopicity of granular magnesium L-aspartate hydrochloride prepared by the process according to the invention was compared with a finely powdered magnesium L-aspartate hydrochloride prepared by a standard process (disclosed in DE 32 38 118 A1). The test arrangement consisted of a desiccator which was adjusted to a relative humidity of 75% with a saturated sodium chloride solution. In each case a defined amount of sample was weighed out and the sample dish was placed in the desiccator. The percentage increase in weight of the weighed amount was determined after 2, 4, 5 and 20 hours.

[5] = Apparent volume of the final product; type: physicochemical
Description: A product with a very favourable apparent volume can be achieved in the process according to the invention for preparing the granular hydrohalide of the complex compound of relevance here. The apparent volume [volume of the uncompressed product (ml)/100 g of the product] is preferably in a range from 150 to 180 ml/100 g, with a particularly preferred apparent volume being about 170 ml/100 g.

[6] = Particle size distribution of the final product of Example 1; type: physicochemical
[7] = background statement; cited from earlier work
[8] = listed as granular magnesium L-aspartate hydrochloride, hydrochloride
[9] = sieve 63.0 μm, listed as process according to the present invention, hydrochloride
[10] = sieve 90.0 μm, listed as process according to the present invention, hydrochloride
[11] = sieve 150.0 μm, listed as process according to the present invention, hydrochloride
[12] = listed as finely powdered magnesium L-aspartate hydrochloride, hydrochloride
[13] = sieve 63.0 μm, listed as standard process, hydrochloride
[14] = sieve 90.0 μm, listed as standard process, hydrochloride
[15] = sieve 150.0 μm, listed as standard process, hydrochloride

Cl.N[C@@H](CC(=O)[O-])C(=O)[O-].[Mg+2] [According to the invention, magnesium L-aspartate hydrochloride]
average particle size (d50) [1, 8]: 250.8 μm
maximum particle size (dmax) [1, 8]: 448.7 μm
minimum particle size (dmin) [1, 8]: 48.0 μm
1 − Q ([1]; sieve 0 μm (receiver)): 100.0 %-R
Q ([1]; sieve 0 μm (receiver)): 0.0 %-D
q ([1]; sieve 0 μm (receiver), listed as process according to the present invention, hydrochloride): 0.2 %-B
1 − Q [1, 9]: 99.8 %-R
Q [1, 9]: 0.2 %-D
q [1, 9]: 0.6 %-B
1 − Q [1, 10]: 99.2 %-R
Q [1, 10]: 0.8 %-D
q [1, 10]: 10.2 %-B
1 − Q [1, 11]: 89.0 %-R
Q [1, 11]: 11.0 %-D
q [1, 11]: 61.4 %-B
1 − Q ([1]; sieve 212.0 μm): 27.6 %-R
Q ([1]; sieve 212.0 μm): 72.4 %-D
q ([1]; sieve 212.0 μm): 18.4 %-B
1 − Q ([1]; sieve 315.0 μm): 9.2 %-R
Q ([1]; sieve 315.0 μm): 90.8 %-D
q ([1]; sieve 315.0 μm): 5.4 %-B
1 − Q ([1]; sieve 400.0 μm): 3.8 %-R
Q ([1]; sieve 400.0 μm): 96.2 %-D
q ([1]; sieve 400.0 μm): 3.0 %-B
1 − Q ([1]; sieve 500.0 μm): 0.8 %-R
Q ([1]; sieve 500.0 μm): 99.2 %-D
q ([1]; sieve 500.0 μm): 0.8 %-B
Flow time [2]: 10 s
Dissolving time [3]: 3 min and 2 min
hygroscopicity compared with a finely powdered product according to the prior art ([4]; 2 to 20 hours): distinctly reduced
percentage increase in weight ([4]; testing time 2 h): 0.18% and 0.16%
percentage increase in weight ([4]; testing time 4 h): 0.33% and 0.30%
percentage increase in weight ([4]; testing time 5 h): 0.43% and 0.40%
percentage increase in weight ([4]; testing time 20 h): 1.74% and 1.63%

Cl.N[C@@H](CC(=O)[O-])C(=O)[O-].[Mg+2] [Example 1, magnesium L-aspartate hydrochloride]
apparent volume [volume of the uncompressed product (ml)/100 g of the product] [5]: 170 ml/100 g
particle size distribution, fraction of particles ([6]; 100-140 μm): 19.48%
particle size distribution, fraction of particles ([6]; 140-250 μm): 57.84%
particle size distribution, fraction of particles ([6]; 250-315 μm): 10.81%
particle size distribution, fraction of particles ([6]; 315-400 μm): 4.78%
particle size distribution, fraction of particles ([6]; 400-500 μm): 0.90%
particle size distribution, fraction of particles ([6]; <100 μm): 6.19%

Cl.N[C@@H](CC(=O)[O-])C(=O)[O-].[Mg+2] [Magnesium L-aspartate hydrochloride]
humidity at which the substance liquefies [7]: more than 50%

Cl.N[C@@H](CC(=O)[O-])C(=O)[O-].[Mg+2] [Standard, magnesium L-aspartate hydrochloride, reference compound]
average particle size (d50) [1, 12]: 54.9 μm
maximum particle size (dmax) [1, 12]: 260.0 μm
minimum particle size (dmin) [1, 12]: 0.7 μm
1 − Q ([1]; sieve 0 μm (receiver)): 100.0 %-R
Q ([1]; sieve 0 μm (receiver)): 0.0 %-D
q ([1]; sieve 0 μm (receiver), listed as standard process, hydrochloride): 55.4 %-B
1 − Q [1, 13]: 44.6 %-R
Q [1, 13]: 55.4 %-D
q [1, 13]: 23.8 %-B
1 − Q [1, 14]: 20.8 %-R
Q [1, 14]: 79.2 %-D
q [1, 14]: 15.6 %-B
1 − Q [1, 15]: 5.2 %-R
Q [1, 15]: 94.8 %-D
q [1, 15]: 5.2 %-B
Dissolving time [3]: 7 min
percentage increase in weight ([4]; testing time 2 h): 0.35% and 0.30%
percentage increase in weight ([4]; testing time 4 h): 0.63% and 0.55%
percentage increase in weight ([4]; testing time 5 h): 0.72% and 0.71%
percentage increase in weight ([4]; testing time 20 h): 3.06% and 2.70%
